According to patent publication US5763404A, “Methods for using LHRH antagonists with low histamine release” (priority 1995, dated 1998):
Starred links: 1 amine or outer side, 2 acyl side, 3 side chain; linkers in the order of their positions; H or OH if unused. Non-standard residues stand in square brackets, D forms with d. Residues, ends and D or L forms follow the SMILES beside them. *: point of attachment. X4 = O=C(N[C@H]1CC[C@@H](C[C@@H](N[*:1])C(=O)[*:2])CC1)c1cccnc1; X7 = O=C(N[C@H]1CC[C@H](C[C@@H](N[*:1])C(=O)[*:2])CC1)c1cccnc1; dPhe(3,4-Cl2) = N[C@H](Cc1ccc(Cl)c(Cl)c1)C(=O)O; dPhe(4-Cl) = N[C@H](Cc1ccc(Cl)cc1)C(=O)O; Pyrimidin2yl(4,6-Me2) = Cc1cc(C)nc(*)n1; d2Nal = N[C@H](Cc1ccc2ccccc2c1)C(=O)O; Nicotinoyl(6-Me) = Cc1ccc(C(=O)*)cn1; dLys(Me2) = CN(C)CCCC[C@@H](N)C(=O)O; Lys(iPr) = CC(C)NCCCC[C@H](N)C(=O)O; Orn(iPr) = CC(C)NCCC[C@H](N)C(=O)O; NH(4-MeO-phenyl) = COc1ccc(N*)cc1; Pyrazinecarbonyl = O=C(c1cnccn1)*; 3Pal = N[C@@H](Cc1cccnc1)C(=O)O; d3Pal = N[C@H](Cc1cccnc1)C(=O)O; Nicotinoyl = O=C(c1cccnc1)*; Picolinoyl = O=C(c1ccccn1)*; dOrn = NCCC[C@@H](N)C(=O)O; Orn = NCCC[C@H](N)C(=O)O; Me2Gly = CN(C)CC(=O)*; Bz = O=C(c1ccccc1)*

system: anaesthesized rats; assay: wheal test, intradermal injection; type: in vivo, rat; settings: Table I; 10 ug peptide intradermally
Outline: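 Anaesthetized rats given intradermal injection of 10 ug peptide in 100 ul saline; area of the wheal calculated from its diameter.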

SMILES	Wheal
CC(=O)N[C@H](Cc1ccc2ccccc2c1)C(=O)N[C@H](Cc1ccc(Cl)cc1)C(=O)N[C@H](Cc1cccnc1)C(=O)N[C@@H](CO)C(=O)N[C@@H](CCCCNC(=O)c1cccnc1)C(=O)N[C@H](CCCNc1nc(C)cc(C)n1)C(=O)N[C@@H](CC(C)C)C(=O)N[C@@H](CCCCNC(C)C)C(=O)N1CCC[C@H]1C(=O)N[C@H](C)C(N)=O [compound 25334] (Ac-[d2Nal][dPhe(4-Cl)][d3Pal]SK(Nicotinoyl)[dOrn](Pyrimidin2yl(4,6-Me2))L[Lys(iPr)]P[dA]-NH2)	165.2 mm^2 /10
CC(=O)N[C@H](Cc1ccc2ccccc2c1)C(=O)N[C@H](Cc1ccc(Cl)cc1)C(=O)N[C@H](Cc1cccnc1)C(=O)N[C@@H](CO)C(=O)N[C@@H](CCCNC(=N)N)C(=O)N[C@H](CCCCNC(=O)c1cccnc1)C(=O)N[C@@H](CC(C)C)C(=O)N[C@@H](CCCCNC(C)C)C(=O)N1CCC[C@H]1C(=O)N[C@H](C)C(N)=O [compound 25335] (Ac-[d2Nal][dPhe(4-Cl)][d3Pal]SR[dK](Nicotinoyl)L[Lys(iPr)]P[dA]-NH2)	196.9 mm^2 /10
CC(=O)N[C@H](Cc1ccc(Cl)cc1)C(=O)N[C@H](Cc1ccc(Cl)cc1)C(=O)N[C@H](Cc1cccnc1)C(=O)N[C@@H](CO)C(=O)N[C@@H](Cc1ccc(O)cc1)C(=O)N[C@H](CCCCNC(=O)c1cccnc1)C(=O)N[C@@H](CC(C)C)C(=O)N[C@@H](CCCCNC(C)C)C(=O)N1CCC[C@H]1C(=O)N[C@H](C)C(N)=O [compound 25337] (Ac-[dPhe(4-Cl)][dPhe(4-Cl)][d3Pal]SY[dK](Nicotinoyl)L[Lys(iPr)]P[dA]-NH2)	139.9 mm^2 /10
CC(=O)N[C@H](Cc1ccc(Cl)c(Cl)c1)C(=O)N[C@H](Cc1ccc(Cl)cc1)C(=O)N[C@H](Cc1cccnc1)C(=O)N[C@@H](CO)C(=O)N[C@@H](Cc1ccc(O)cc1)C(=O)N[C@H](CCCCNC(=O)c1cccnc1)C(=O)N[C@@H](CC(C)C)C(=O)N[C@@H](CCCCNC(C)C)C(=O)N1CCC[C@H]1C(=O)N[C@H](C)C(N)=O [compound 25338] (Ac-[dPhe(3,4-Cl2)][dPhe(4-Cl)][d3Pal]SY[dK](Nicotinoyl)L[Lys(iPr)]P[dA]-NH2)	103.9 mm^2 /10
CC(=O)N[C@H](Cc1ccc2ccccc2c1)C(=O)N[C@H](Cc1ccc(Cl)cc1)C(=O)N[C@H](Cc1cccnc1)C(=O)N[C@@H](CO)C(=O)N[C@@H](Cc1cccnc1)C(=O)N[C@H](CCCCNC(=O)c1cccnc1)C(=O)N[C@@H](CC(C)C)C(=O)N[C@@H](CCCCNC(C)C)C(=O)N1CCC[C@H]1C(=O)N[C@H](C)C(N)=O [compound 25383] (Ac-[d2Nal][dPhe(4-Cl)][d3Pal]S[3Pal][dK](Nicotinoyl)L[Lys(iPr)]P[dA]-NH2)	132.8 mm^2 /10
CC(=O)N[C@H](Cc1ccc2ccccc2c1)C(=O)N[C@H](Cc1ccc(Cl)cc1)C(=O)N[C@H](Cc1cccnc1)C(=O)N[C@@H](CO)C(=O)N[C@@H](Cc1cccnc1)C(=O)N[C@H](CCCCNC(=O)c1cccnc1)C(=O)N[C@@H](CC(C)C)C(=O)N[C@@H](CCCNC(C)C)C(=O)N1CCC[C@H]1C(=O)N[C@H](C)C(N)=O [compound 25384] (Ac-[d2Nal][dPhe(4-Cl)][d3Pal]S[3Pal][dK](Nicotinoyl)L[Orn(iPr)]P[dA]-NH2)	139.9 mm^2 /10
CC(=O)N[C@H](Cc1ccc2ccccc2c1)C(=O)N[C@H](Cc1ccc(Cl)cc1)C(=O)N[C@H](Cc1cccnc1)C(=O)N[C@@H](CO)C(=O)N[C@@H](CCCNC(=N)N)C(=O)N[C@H](CCCCNC(=O)c1ccccc1)C(=O)N[C@@H](CC(C)C)C(=O)N[C@@H](CCCCNC(C)C)C(=O)N1CCC[C@H]1C(=O)N[C@H](C)C(N)=O [compound 25385] (Ac-[d2Nal][dPhe(4-Cl)][d3Pal]SR[dK](Bz)L[Lys(iPr)]P[dA]-NH2)	169.0 mm^2 /10
CC(=O)N[C@H](Cc1ccc2ccccc2c1)C(=O)N[C@H](Cc1ccc(Cl)cc1)C(=O)N[C@H](Cc1cccnc1)C(=O)N[C@@H](CO)C(=O)N[C@@H](CCCCNC(=O)c1ccc(C)nc1)C(=O)N[C@H](CCCCNC(=O)c1ccc(C)nc1)C(=O)N[C@@H](CC(C)C)C(=O)N[C@@H](CCCCNC(C)C)C(=O)N1CCC[C@H]1C(=O)N[C@H](C)C(N)=O [compound 25386] (Ac-[d2Nal][dPhe(4-Cl)][d3Pal]SK(Nicotinoyl(6-Me))[dK](Nicotinoyl(6-Me))L[Lys(iPr)]P[dA]-NH2)	126.1 mm^2 /10
CC(=O)N[C@H](Cc1ccc2ccccc2c1)C(=O)N[C@H](Cc1ccc(Cl)cc1)C(=O)N[C@H](Cc1cccnc1)C(=O)N[C@@H](CO)C(=O)N[C@@H](CCCNc1nc(C)cc(C)n1)C(=O)N[C@H](CCCCNC(=O)c1cccnc1)C(=O)N[C@@H](CC(C)C)C(=O)N[C@@H](CCCCNC(C)C)C(=O)N1CCC[C@H]1C(=O)N[C@H](C)C(N)=O [compound 25506] (Ac-[d2Nal][dPhe(4-Cl)][d3Pal]S[Orn](Pyrimidin2yl(4,6-Me2))[dK](Nicotinoyl)L[Lys(iPr)]P[dA]-NH2)	110 ± 3 mm^2 /10
CC(=O)N[C@H](Cc1ccc2ccccc2c1)C(=O)N[C@H](Cc1ccc(Cl)cc1)C(=O)N[C@H](Cc1cccnc1)C(=O)N[C@@H](CO)C(=O)N[C@@H](CCCCNC(=O)CN(C)C)C(=O)N[C@H](CCCCNC(=O)c1cccnc1)C(=O)N[C@@H](CC(C)C)C(=O)N[C@@H](CCCCNC(C)C)C(=O)N1CCC[C@H]1C(=O)N[C@H](C)C(N)=O [compound 25509] (Ac-[d2Nal][dPhe(4-Cl)][d3Pal]SK(Me2Gly)[dK](Nicotinoyl)L[Lys(iPr)]P[dA]-NH2)	110 ± 3 mm^2 /10
CC(=O)N[C@H](Cc1ccc2ccccc2c1)C(=O)N[C@H](Cc1ccc(Cl)cc1)C(=O)N[C@H](Cc1cccnc1)C(=O)N[C@@H](CO)C(=O)N[C@@H](CCCCNC(=O)c1ccccn1)C(=O)N[C@H](CCCCNC(=O)c1cccnc1)C(=O)N[C@@H](CC(C)C)C(=O)N[C@@H](CCCCNC(C)C)C(=O)N1CCC[C@H]1C(=O)N[C@H](C)C(N)=O [compound 25510] (Ac-[d2Nal][dPhe(4-Cl)][d3Pal]SK(Picolinoyl)[dK](Nicotinoyl)L[Lys(iPr)]P[dA]-NH2)	116 ± 3.3 mm^2 /10
COc1ccc(NC(=O)CC[C@@H](NC(=O)[C@H](CCCCNC(=O)c2cccnc2)NC(=O)[C@H](CO)NC(=O)[C@@H](Cc2cccnc2)NC(=O)[C@@H](Cc2ccc(Cl)cc2)NC(=O)[C@@H](Cc2ccc3ccccc3c2)NC(C)=O)C(=O)N[C@@H](CC(C)C)C(=O)N[C@@H](CCCCNC(C)C)C(=O)N2CCC[C@H]2C(=O)N[C@H](C)C(N)=O)cc1 [compound 25588] (Ac-[d2Nal][dPhe(4-Cl)][d3Pal]SK(Nicotinoyl)[dE](NH(4-MeO-phenyl))L[Lys(iPr)]P[dA]-NH2)	113 ± 7 mm^2 /10
CC(=O)N[C@H](Cc1ccc2ccccc2c1)C(=O)N[C@H](Cc1ccc(Cl)cc1)C(=O)N[C@H](Cc1cccnc1)C(=O)N[C@@H](CO)C(=O)N[C@@H](CCCCNC(=O)c1cccnc1)C(=O)N[C@H](CCCCNC(=O)c1ccccn1)C(=O)N[C@@H](CC(C)C)C(=O)N[C@@H](CCCCNC(C)C)C(=O)N1CCC[C@H]1C(=O)N[C@H](C)C(N)=O [compound 25589] (Ac-[d2Nal][dPhe(4-Cl)][d3Pal]SK(Nicotinoyl)[dK](Picolinoyl)L[Lys(iPr)]P[dA]-NH2)	120 ± 7 mm^2 /10
CC(=O)N[C@H](Cc1ccc2ccccc2c1)C(=O)N[C@H](Cc1ccc(Cl)cc1)C(=O)N[C@H](Cc1cccnc1)C(=O)N[C@@H](CO)C(=O)N[C@@H](CCCCNC(=O)c1cccnc1)C(=O)N[C@H](CCCCN(C)C)C(=O)N[C@@H](CC(C)C)C(=O)N[C@@H](CCCCNC(C)C)C(=O)N1CCC[C@H]1C(=O)N[C@H](C)C(N)=O [compound 25591] (Ac-[d2Nal][dPhe(4-Cl)][d3Pal]SK(Nicotinoyl)[dLys(Me2)]L[Lys(iPr)]P[dA]-NH2)	111 ± 2 mm^2 /10
CC(=O)N[C@H](Cc1ccc2ccccc2c1)C(=O)N[C@H](Cc1ccc(Cl)cc1)C(=O)N[C@H](Cc1cccnc1)C(=O)N[C@@H](CO)C(=O)N[C@@H](CCCCNC(=O)c1cccnc1)C(=O)N[C@H](C[C@H]1CC[C@H](NC(=O)c2cccnc2)CC1)C(=O)N[C@@H](CC(C)C)C(=O)N[C@@H](CCCCNC(C)C)C(=O)N1CCC[C@H]1C(=O)N[C@H](C)C(N)=O [compound 25647] (Ac-[d2Nal][dPhe(4-Cl)][d3Pal]SK(Nicotinoyl)[X7]L[Lys(iPr)]P[dA]-NH2)	119.5 ± 3.2 mm^2 /10
CC(=O)N[C@H](Cc1ccc2ccccc2c1)C(=O)N[C@H](Cc1ccc(Cl)cc1)C(=O)N[C@H](Cc1cccnc1)C(=O)N[C@@H](CO)C(=O)N[C@@H](CCCCNC(=O)c1cccnc1)C(=O)N[C@H](C[C@H]1CC[C@@H](NC(=O)c2cccnc2)CC1)C(=O)N[C@@H](CC(C)C)C(=O)N[C@@H](CCCCNC(C)C)C(=O)N1CCC[C@H]1C(=O)N[C@H](C)C(N)=O [compound 25648] (Ac-[d2Nal][dPhe(4-Cl)][d3Pal]SK(Nicotinoyl)[X4]L[Lys(iPr)]P[dA]-NH2)	113.6 mm^2 /10
CC(=O)N[C@H](Cc1ccc2ccccc2c1)C(=O)N[C@H](Cc1ccc(Cl)cc1)C(=O)N[C@H](Cc1cccnc1)C(=O)N[C@@H](CO)C(=O)N[C@@H](CCCCNC(=O)c1cccnc1)C(=O)N[C@H](CCCCNC(=O)c1cnccn1)C(=O)N[C@@H](CC(C)C)C(=O)N[C@@H](CCCCNC(C)C)C(=O)N1CCC[C@H]1C(=O)N[C@H](C)C(N)=O [compound 25649] (Ac-[d2Nal][dPhe(4-Cl)][d3Pal]SK(Nicotinoyl)[dK](Pyrazinecarbonyl)L[Lys(iPr)]P[dA]-NH2)	122.2 ± 5.1 mm^2 /10
CC(=O)N[C@H](Cc1ccc2ccccc2c1)C(=O)N[C@H](Cc1ccc(Cl)cc1)C(=O)N[C@H](Cc1cccnc1)C(=O)N[C@@H](CO)C(=O)N[C@@H](CCCCNC(=O)c1cnccn1)C(=O)N[C@H](CCCCNC(=O)c1cnccn1)C(=O)N[C@@H](CC(C)C)C(=O)N[C@@H](CCCCNC(C)C)C(=O)N1CCC[C@H]1C(=O)N[C@H](C)C(N)=O [compound 25650] (Ac-[d2Nal][dPhe(4-Cl)][d3Pal]SK(Pyrazinecarbonyl)[dK](Pyrazinecarbonyl)L[Lys(iPr)]P[dA]-NH2)	110.2 mm^2 /10
